The results in this text go back to ChEMBL document CHEMBL3301464, “MMV Malaria Box anti-babesial screening”.

Structures are written as SMILES.

Assay [1] can be described thus: (§1) MMV: Anti-babesial activity assay. Parasite pRBCs at 1% parasitemia were cultivated in 100 ul with 96-well plates at 2.5% and 5% hematocrits. The parasites were cultivated in triplicate for 4 days without replacement of the medium for each concentration of the compound. Format: functional, Babesia bovis.
Assay [2] in a line: as §1. Format: functional, Babesia bigemina.
Assay [3] in a line: as §1. In kind it is functional, Babesia equi.
The nature of assay [4]: as §1. In kind it is functional, Babesia caballi.

Regarding `COc1ccc(-c2nc3cc(Cc4ccc5[nH]c(-c6ccc(OC)cc6)nc5c4)ccc3[nH]2)cc1`, the IC50 – broadly, the midpoint of a concentration-inhibition curve – in assay [1] worked out at 5.58 µM; in assay [2], 7.5 µM; in assay [3], 8.12 µM; in assay [4], 3.21 µM.
As for `CC1=C(CC(=O)c2cccc([N+](=O)[O-])c2)C(=O)c2ccccc2C1=O`, the IC50 stood at 0.36 µM in assay [1], 0.49 µM in assay [2], 4.85 µM in assay [3] and 6.86 µM in assay [4].
As to `CCCCN(CCCC)S(=O)(=O)c1ccc(NC(=O)c2ccco2)cc1`, the half-maximal inhibitory concentration (IC50) in assay [1] is 10 µM; in assay [2], 25 µM; in assay [3], 14.2 µM; in assay [4] it was 3.81 µM.
The corresponding values for `OC(CNC1CCCCC1)Cn1c2ccc(I)cc2c2cc(I)ccc21` (stereo unspecified) are 1.3 µM, 16.5 µM, 2.17 µM and 3.73 µM.
The corresponding values for `CN1CCN(c2nc(Nc3ccc(O)cc3)nc3ccccc23)CC1` are 16.8 µM, 10.2 µM, 15.6 µM and 9 µM.
`Cc1ccc(C(=O)c2oc3ccc4c(C)cc(=O)oc4c3c2C)cc1`: the IC50 in assay [1] was 0.07 µM; in assay [2], 0.065 µM; in assay [3] it was 0.054 µM; in assay [4], 9.18 µM.
In the case of `Cc1ccc(CN2CCC(C(=O)Nc3ccc(-c4cc5ccccc5[nH]4)cc3)CC2)o1`, the IC50 in assay [1] was 5.5 µM; in assay [2] it was 3.61 µM; in assay [3] it was 0.33 µM; in assay [4], 4.37 µM.
The corresponding values for `Cc1cc(Nc2ccc(OCc3ccccc3)cc2)nc2cc(O)ccc12` are 0.17 µM, 3.45 µM, 6.31 µM and 4.91 µM.
In the case of `CCN(CC)S(=O)(=O)c1ccc(-c2csc(Nc3ccc(C)c(C)c3)n2)cc1`, the IC50 in assay [1] came out at 11.9 µM; in assay [2], 10 µM; in assay [3], 14.2 µM; in assay [4], 0.08 µM.
The corresponding values for `CCCCCCOC(=O)C1=C(C)NC(=O)NC1c1ccccc1F` (stereo unspecified) are greater than 25 µM, 14.8 µM, 15.2 µM and 4.9 µM.
As for `COc1nc(Nc2ccc(C(C)C)cc2)nc(OC)n1`, the IC50 in assay [1] came to 1.03 µM; in assay [2], 10.1 µM; in assay [3], 12.3 µM; in assay [4] it was 0.076 µM.
Turning to `c1ccc(/C2=N/c3ccccc3/N=C(/c3ccccc3)c3ccccc32)cc1`, the IC50 is 17.7 µM in assay [1], 10 µM in assay [2], 15.2 µM in assay [3] and 4.91 µM in assay [4].
The corresponding values for `COc1cc2cc(C(=O)Nc3ccccc3)c(N)nc2cc1OC` are 0.86 µM, 21.1 µM, 3.04 µM and 6.22 µM.
For `CC(C)(C)c1ccc(O)c(CNC2CCCCC2)c1`, the IC50 in assay [1] came out at 18.2 µM; in assay [2], 17 µM; in assay [3] it was 7 µM; in assay [4] it was 10 µM.
The corresponding values for `N=c1n(CCN2CCCCC2)c2ccccc2n1CC(=O)c1ccc(Cl)c(Cl)c1` are 0.077 µM, 0.066 µM, 15.9 µM and 3.73 µM.
The corresponding values for `COc1ccc(C)c2sc(N(Cc3cccnc3)C(=O)c3ccc(C#N)cc3)nc12` are 0.24 µM, 0.55 µM, 5.69 µM and 15.2 µM.
The corresponding values for `CCOC(=O)c1c[nH]c2c(CC)cccc2c1=O` are 9.61 µM, 5.09 µM, 13.4 µM and 14.6 µM.
Take `OC1CCCCC1C1(NC(=S)Nc2ccccc2)CCCCC1` (stereo unspecified): the IC50 stood at 1.41 µM in assay [1], 0.93 µM in assay [2], 5.09 µM in assay [3] and 14.1 µM in assay [4].
The corresponding values for `Cc1ccc(CSCc2ccc(C(=O)NC3CC3)o2)cc1` are 8.31 µM, 15.2 µM, 4.48 µM and 12.9 µM.
